Laboratory results reported in BigSolDB 2.1.

Nc1ccc(Cc2ccc(N)c(Cl)c2)cc1Cl
solubility (mole fraction)
Details	283.15 K	288.15 K	293.15 K	298.15 K	303.15 K	308.15 K	313.15 K	318.15 K	323.15 K	328.15 K
in 1,4-dioxane	–	0.206	0.217	0.236	0.258	0.285	0.32	0.354	0.394	0.443
in DMAc	0.339	0.348	0.366	0.384	0.41	0.436	0.466	0.502	0.548	0.587
in DMF	0.306	0.316	0.33	0.347	0.373	0.396	0.425	0.462	0.502	0.545
in acetonitrile	0.0208	0.0225	0.0251	0.0283	0.0323	0.0367	0.0419	0.048	0.0574	0.0671
in ethanol	0.0223	0.0242	0.0272	0.0314	0.0362	0.0424	0.049	0.057	0.0677	0.0803
in ethyl acetate	0.115	0.123	0.134	0.146	0.162	0.177	0.196	0.223	0.254	0.287
in ethylene glycol	0.0057	0.00624	0.00816	0.00975	0.0123	0.0148	0.0181	0.0208	0.0239	0.0281
in isobutanol	0.0136	0.015	0.0172	0.0197	0.0227	0.0259	0.0301	0.0357	0.0426	0.0513
in isopropanol	0.0189	0.0203	0.0226	0.0261	0.0294	0.0336	0.039	0.0447	0.0532	0.0623
in methanol	0.0163	0.018	0.02	0.0231	0.026	0.0297	0.0347	0.0405	0.048	0.0565
in n-butanol	0.0298	0.0323	0.037	0.0425	0.0484	0.0551	0.0632	0.0737	0.0873	0.105
in n-propanol	0.0257	0.0278	0.0322	0.0369	0.0422	0.0484	0.0562	0.066	0.0783	0.094
in water	0.00014	0.000172	0.000228	0.000286	0.000342	0.000409	0.000475	0.000559	0.000684	0.000842
